# Patent US9409870B2, “Compounds” (CHIESI FARMACEUTICI S.p.A., priority 2014, dated 2016)
# Target: T1, human neutrophil elastase (HNE) (Homo sapiens, UniProt P08246)
# T1 construct: purchased Sigma E8140
# T1 sequence (P08246 30-247 limits assumed): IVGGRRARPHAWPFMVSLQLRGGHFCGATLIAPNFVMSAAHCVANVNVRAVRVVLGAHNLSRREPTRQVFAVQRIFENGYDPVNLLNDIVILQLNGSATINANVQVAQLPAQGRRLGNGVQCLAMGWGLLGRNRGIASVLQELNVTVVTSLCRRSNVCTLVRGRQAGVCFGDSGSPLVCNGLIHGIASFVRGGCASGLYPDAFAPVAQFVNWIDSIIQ
# Experiment: HNE enzyme activity assay (fluorogenic peptide substrate MeOSuc-Ala-Ala-Pro-Val-AMC)
# Format: biochemical
# Settings: human leukocyte elastase 0.00072 U/mL, substrate 100 μM, 25° C., 30 minutes, pH 7.5; at least two separate experiments; read-out: FINE inhibition (HNE enzyme inhibition, IC50 values)
# Protocol: Compounds of this invention were tested for potency in a human neutrophil elastase (HNE) enzyme activity assay.
# Assays were performed in 96-well plates in a total assay volume of 100 μL. The final concentration of elastase enzyme (human leukocyte elastase, Sigma E8140) was 0.00072 U/mL. The peptide substrate (MeOSuc-Ala-Ala-Pro-Val-AMC, Calbiochem #324740) was used at a final concentration of 100 μM. The final concentration of DMSO was 1% in the assay buffer (0.05M Tris.HCl, 0.1M NaCl, 0.1M CaCl2, 0.0005% brij-35, pH 7.5). The enzymatic reaction was started by addition of the enzyme and incubated at 25° C. for 30 minutes. After incubation, the reaction was stopped by addition of soybean trypsin inhibitor (Sigma T9003) at a final concentration of 50 μg/well. Fluorescence was measured using a Molecular Devices fluorescence plate reader using 380 nm excitation and 460 nm emission wavelengths.
# A dose response to each compound was performed and the effect of compound in each experiment was expressed as a percentage inhibition of the control enzyme fluorescence. Dose response curves were plotted and compound potency (IC50) was determined. Compounds were tested in at least two separate experiments.
row,Compound,IC50 [nM]
1,"Cc1c(-c2ccnn2-c2ccc(C#N)cc2)[nH]c(=O)n1-c1cccc(C(F)(F)F)c1 [Example 1, 4-(5-{5-Methyl-2-oxo-1-[3-(trifluoromethyl)phenyl]-2,3-dihydro-1H-imidazol-4-yl}-1H-pyrazol-1-yl)benzonitrile]",10 to 50
2,"Cc1c(-c2ccnn2-c2ccc(C#N)cc2)n(CCCS(C)(=O)=O)c(=O)n1-c1cccc(C(F)(F)F)c1 [Example 2, 4-(5-{5-Methyl-3-[3-(methylsulfonyl)propyl]-2-oxo-1-[3-(trifluoromethyl)phenyl]-2,3-dihydro-1H-imidazol-4-yl}-1H-pyrazol-1-yl)benzonitrile]",1 to 10
3,"Cc1c(-c2ccnn2-c2ccc(C#N)cc2)n(C)c(=O)n1-c1cccc(C(F)(F)F)c1 [Example 3, 4-(5-{3,5-Dimethyl-2-oxo-1-[3-(trifluoromethyl)phenyl]-2,3-dihydro-1H-imidazol-4-yl}-1H-pyrazol-1-yl)benzonitrile]",1 to 10
4,"CCOC(=O)n1c(-c2ccnn2-c2ccc(C#N)cc2)c(C)n(-c2cccc(C(F)(F)F)c2)c1=O [Example 4, Ethyl-5-[1-(4-cyanophenyl)-1H-pyrazol-5-yl]-4-methyl-2-oxo-3-[3-(trifluoromethyl)phenyl]-2,3-dihydro-1H-imidazole-1-carboxylate]",< 1
5,"CC(=O)n1c(-c2ccnn2-c2ccc(C#N)cc2)c(C)n(-c2cccc(C(F)(F)F)c2)c1=O [Example 5, 4-(5-{3-Acetyl-5-methyl-2-oxo-1-[3-(trifluoromethyl)phenyl]-2,3-dihydro-1H-imidazol-4-yl}-1H-pyrazol-1-yl)benzonitrile]",1 to 10
6,"CCNC(=O)n1c(-c2ccnn2-c2ccc(C#N)cc2)c(C)n(-c2cccc(C(F)(F)F)c2)c1=O [Example 6, 5-[1-(4-Cyanophenyl)-1H-pyrazol-5-yl]-N-ethyl-4-methyl-2-oxo-3-[3-(trifluoromethyl)phenyl]-2,3-dihydro-1H-imidazole-1-carboxamide]",< 1
7,"Cc1c(-c2ccnn2-c2ccc(C#N)cc2)n(C(=O)NCCO)c(=O)n1-c1cccc(C(F)(F)F)c1 [Example 7, 5-[1-(4-Cyanophenyl)-1H-pyrazol-5-yl]-N-(2-hydroxyethyl)-4-methyl-2-oxo-3-[3-(trifluoromethyl)phenyl]-2,3-dihydro-1H-imidazole-1-carboxamide]",1 to 10
8,"Cc1c(-c2ccnn2-c2ccc(C#N)cc2)n(C(=O)NCCCO)c(=O)n1-c1cccc(C(F)(F)F)c1 [Example 8, 5-[1-(4-Cyanophenyl)-1H-pyrazol-5-yl]-N-(3-hydroxypropyl)-4-methyl-2-oxo-3-[3-(trifluoromethyl)phenyl]-2,3-dihydro-1H-imidazole-1-carboxamide]",< 1
9,"Cc1c(-c2ccnn2-c2ccc(C#N)cc2)n(C(=O)NCCCN(C)C)c(=O)n1-c1cccc(C(F)(F)F)c1 [Example 9, 5-[1-(4-Cyanophenyl)-1H-pyrazol-5-yl]-N-[3-(dimethylamino)propyl]-4-methyl-2-oxo-3-[3-(trifluoromethyl)phenyl]-2,3-dihydro-1H-imidazole-1-carboxamide]",1 to 10
10,"CCCC(=O)n1c(-c2ccnn2-c2ccc(C#N)cc2)c(C)n(-c2cccc(C(F)(F)F)c2)c1=O [Example 10, 4-(5-{3-Butanoyl-5-methyl-2-oxo-1-[3-(trifluoromethyl)phenyl]-2,3-dihydro-1H-imidazol-4-yl}-1H-pyrazol-1-yl)benzonitrile]",< 1

# Second part, the molecule after the results:
row,IC50 [nM],Compound
1,< 1,"Cc1c(-c2ccnn2-c2ccc(C#N)cc2)n(C(=O)N[C@@H]2COC[C@H]2O)c(=O)n1-c1cccc(C(F)(F)F)c1 (racemic) [Example 48, Mixture of 5-[2-(4-Cyano-phenyl)-2H-pyrazol-3-yl]-4-methyl-2-oxo-3-(3-trifluoromethyl-phenyl)-2,3-dihydro-imidazole-1-carboxylic acid ((3R,4S)-4-hydroxy-tetrahydro-furan-3-yl)-amide and 5-[2-(4-Cyano-phenyl)-2H-pyrazol-3-yl]-4-methyl-2-oxo-3-(3-trifluoromethyl-phenyl)-2,3-dihydro-imidazole-1-carboxylic acid ((3S,4R)-4-hydroxy-tetrahydro-furan-3-yl)-amide]"
2,< 1,"COCCNC(=O)n1c(-c2ccnn2-c2ccc(C#N)cc2)c(C)n(-c2cccc(C(F)(F)F)c2)c1=O [Example 11, 5-[1-(4-Cyanophenyl)-1H-pyrazol-5-yl]-N-(2-methoxyethyl)-4-methyl-2-oxo-3-[3-(trifluoromethyl)phenyl]-2,3-dihydro-1H-imidazole-1-carboxamide]"
3,1 to 10,"Cc1c(-c2ccnn2-c2ccc(C#N)cc2)n(C(=O)NCCN(C)C)c(=O)n1-c1cccc(C(F)(F)F)c1 [Example 12, 5-[1-(4-Cyanophenyl)-1H-pyrazol-5-yl]-N-[2-(dimethylamino)ethyl]-4-methyl-2-oxo-3-[3-(trifluoromethyl)phenyl]-2,3-dihydro-1H-imidazole-1-carboxamide]"
4,< 1,"Cc1c(-c2ccnn2-c2ccc(C#N)cc2)n(C(=O)NCCS(C)(=O)=O)c(=O)n1-c1cccc(C(F)(F)F)c1 [Example 13, 5-[1-(4-Cyanophenyl)-1H-pyrazol-5-yl]-4-methyl-N-[2-(methylsulfonyl)ethyl]-2-oxo-3-[3-(trifluoromethyl)phenyl]-2,3-dihydro-1H-imidazole-1-carboxamide]"
5,< 1,"Cc1c(-c2ccnn2-c2ccc(C#N)cc2)n(C(=O)NC2CCOC2)c(=O)n1-c1cccc(C(F)(F)F)c1 (stereo not drawn) [Example 14, 5-[1-(4-Cyanophenyl)-1H-pyrazol-5-yl]-4-methyl-2-oxo-N-(tetrahydrofuran-3-yl)-3-[3-(trifluoromethyl)phenyl]-2,3-dihydro-1H-imidazole-1-carboxamide]"
6,< 1,"Cc1c(-c2ccnn2-c2ccc(C#N)cc2)n(C(=O)N[C@H]2CCOC2)c(=O)n1-c1cccc(C(F)(F)F)c1 [Example 15, 5-[1-(4-Cyanophenyl)-1H-pyrazol-5-yl]-4-methyl-2-oxo-N-[(3S)-tetrahydrfuran-3-yl]-3-[3-(trifluoromethyl)phenyl]-2,3-dihydro-1H-imidazole-1-carboxamide]"
7,< 1,"Cc1c(-c2ccnn2-c2ccc(C#N)cc2)n(C(=O)N[C@@H]2CCOC2)c(=O)n1-c1cccc(C(F)(F)F)c1 [Example 16, 5-[1-(4-Cyanophenyl)-1H-pyrazol-5-yl]-4-methyl-2-oxo-N-[(3R)-tetrahydrofuran-3-yl]-3-[3-(trifluoromethyl)phenyl]-2,3-dihydro-1H-imidazole-1-carboxamide]"
8,< 1,"Cc1c(-c2ccnn2-c2ccc(C#N)cc2)n(C(=O)NCc2ccn(C)n2)c(=O)n1-c1cccc(C(F)(F)F)c1 [Example 17, 5-[1-(4-Cyanophenyl)-1H-pyrazol-5-yl]-4-methyl-N-[(1-methyl-1H-pyrazol-3-yl)methyl]-2-oxo-3-[3-(trifluoromethyl)phenyl]-2,3-dihydro-1H-imidazole-1-carboxamide]"
9,< 1,"COC(=O)n1c(-c2ccnn2-c2ccc(C#N)cc2)c(C)n(-c2cccc(C(F)(F)F)c2)c1=O [Example 18, Methyl-5-[1-(4-cyanophenyl)-1H-pyrazol-5-yl]-4-methyl-2-oxo-3-[3-(trifluoromethyl)phenyl]-2,3-dihydro-1H-imidazole-1-carboxylate]"
10,< 1,"CCCCC(=O)n1c(-c2ccnn2-c2ccc(C#N)cc2)c(C)n(-c2cccc(C(F)(F)F)c2)c1=O [Example 19, 4-(5-{5-Methyl-2-oxo-3-pentanoyl-1-[3-(trifluoromethyl)phenyl]-2,3-dihydro-1H-imidazol-4-yl}-1H-pyrazol-1-yl)benzonitrile]"
11,10 to 50,"Cc1c(-c2ccnn2-c2ccc(C#N)cc2)n(CC(=O)OC(C)(C)C)c(=O)n1-c1cccc(C(F)(F)F)c1 [Example 20, tert-Butyl-{5-[1-(4-cyanophenyl)-1H-pyrazol-5-yl]-4-methyl-2-oxo-3-[3-(trifluoromethyl)phenyl]-2,3-dihydro-1H-imidazol-1-yl}acetate]"
12,10 to 50,"CCN(C)C(=O)n1c(-c2ccnn2-c2ccc(C#N)cc2)c(C)n(-c2cccc(C(F)(F)F)c2)c1=O [Example 21, 5-[1-(4-Cyanophenyl)-1H-pyrazol-5-yl]-N-ethyl-N,4-dimethyl-2-oxo-3-[3-(trifluoromethyl)phenyl]-2,3-dihydro-1H-imidazole-1-carboxamide]"
13,10 to 50,"Cc1c(-c2ccnn2-c2ccc(C#N)cc2)n(CC(=O)O)c(=O)n1-c1cccc(C(F)(F)F)c1 [Example 22, {5-[1-(4-Cyanophenyl)-1H-pyrazol-5-yl]-4-methyl-2-oxo-3-[3-(trifluoromethyl)phenyl]-2,3-dihydro-1H-imidazol-1-yl}acetic acid]"
14,10 to 50,"CNC(=O)Cn1c(-c2ccnn2-c2ccc(C#N)cc2)c(C)n(-c2cccc(C(F)(F)F)c2)c1=O [Example 23, 2-{5-[1-(4-Cyanophenyl)-1H-pyrazol-5-yl]-4-methyl-2-oxo-3-[3-(trifluoromethyl)phenyl]-2,3-dihydro-1H-imidazol-1-yl}-N-methylacetamide]"
